Reference: patent EP0975634B1, “FUNGICIDAL TRIFLUOROPHENYL-TRIAZOLOPYRIMIDINES” (BASF AKTIENGESELLSCHAFT, priority 1997, dated 1998)
Values after ≈ are worked out from the molar mass of the structure shown. Where two headings read alike, the source gives them in different places.

Columns and labels:
Phytophthora infestans = experiment: microbe, parasite or virus in culture; assay type: cell-based; conditions: for MIC: Phytophthora infestans, read-out: MIC (Minimum Inhibitory Concentration) PHYTIN; for MIC (Minimum Inhibitory Concentration) PHYTIN: total inhibition of mycelial growth, V8 nutrient solution, 6-12 days incubation at 18-25°C, visual inspection
Altemaria solani = experiment: organism not typed; assay type: cell-based; conditions: for MIC: read-out: MIC (Minimum Inhibitory Concentration) ALTESO
Uncinula necator = experiment: Control of powdery mildew on grapes, prophylactic greenhouse test; assay type: in vivo; conditions: grape cultivar Müller-Thurgau, application 3 days before infection, evaluation 21 days after infection; for activity at 3.13 ppm / activity at 6.25 ppm / activity at 12.5 ppm / activity at 25 ppm: Erysiphe necator, read-out: % activity (ABBOTT formula)
Leptosphaeria nodorum = experiment: Minimum Inhibitory Concentration, serial dilution test; assay type: cell-based; conditions: for MIC: Parastagonospora nodorum, read-out: MIC (Minimum Inhibitory Concentration) LEPTNO
Botrytis cinerea = experiment: microbe, parasite or virus in culture; assay type: cell-based; conditions: for MIC: Botrytis cinerea, read-out: MIC (Minimum Inhibitory Concentration) BOTRCI
Pyrenophora teres = experiment: Minimum Inhibitory Concentration, serial dilution test; assay type: cell-based; conditions: for MIC: Pyrenophora teres, read-out: MIC (Minimum Inhibitory Concentration) PYRNTE
[1] = system: Magnaporthe grisea f. sp. Oryzae; experiment: microbe, parasite or virus in culture; assay type: cell-based; conditions: for MIC: Pyricularia oryzae, read-out: MIC (Minimum Inhibitory Concentration) PYRIOR; for MIC (Minimum Inhibitory Concentration) PYRIOR: total inhibition of mycelial growth, V8 nutrient solution, 6-12 days incubation at 18-25°C, visual inspection
Rhizoctonia solani = experiment: Minimum Inhibitory Concentration, serial dilution test; assay type: cell-based; conditions: for MIC: Rhizoctonia solani, read-out: MIC (Minimum Inhibitory Concentration) RHISZO
[2] = total inhibition of mycelial growth, V8 nutrient solution, 6-12 days incubation at 18-25°C, visual inspection

Row | SMILES | MIC (Altemaria solani) | activity at 3.13 ppm (Uncinula necator; Concentration 3.13 ppm) | activity at 6.25 ppm (Uncinula necator; Concentration 6.25 ppm) | activity at 12.5 ppm (Uncinula necator; Concentration 12.50 ppm) | activity at 25 ppm (Uncinula necator; Concentration 25.00 ppm) | MIC (Leptosphaeria nodorum; [2]) | MIC (Botrytis cinerea) | MIC (Pyrenophora teres; [2]) | MIC [1] | MIC (Minimum Inhibitory Concentration) PHYTIN (Phytophthora infestans) | MIC (Minimum Inhibitory Concentration) ALTESO (Altemaria solani) | MIC (Minimum Inhibitory Concentration) BOTRCI (Botrytis cinerea) | MIC (Minimum Inhibitory Concentration) PYRIOR [1] | other results
1 | CC1CCN(c2c(-c3c(F)cc(F)cc3F)c(Cl)nc3ncnn23)CC1 [Example 2, 5-chloro-7-(4-methylpiperidin-1-yl)-6-(2,4,6-trifluorophenyl)-[1,2,4]triazolo[1,5-a]pyrimidine] | 40 µg/mL (≈ 0.105 mM) | 100% | 100% | 100% | 100% | 6250 µg/mL (≈ 16.4 mM) | 100 µg/mL (≈ 0.262 mM) | 200 µg/mL (≈ 0.524 mM) | 40 µg/mL (≈ 0.105 mM) | – | – | – | – | MIC (Phytophthora infestans): 100000 µg/mL (≈ 262 mM)
2 | Fc1cc(F)c(-c2c(Cl)nc3ncnn3c2NC2CC3CCC2C3)c(F)c1 (stereo not shown) [Example 11, 5-chloro-7-(N-norborn-2-ylamino)-6-(2,4,6-trifluorophenyl)-[1,2,4]triazolo[1,5-a]pyrimidine] | – | 64% | 93% | 100% | 100% | – | – | – | – | – | – | – | – | –
3 | Fc1cc(F)c(-c2c(Cl)nc3ncnn3c2NCC(F)(F)F)c(F)c1 [Example 12, 5-chloro-7-(N-2,2,2-trifluoroethylamino)-6-(2,4,6-trifluorophenyl)-[1,2,4]triazolo[1,5-a]pyrimidine] | 1560 µg/mL (≈ 4.09 mM) | 97% | 100% | 100% | 100% | 6250 µg/mL (≈ 16.4 mM) | 1560 µg/mL (≈ 4.09 mM) | 6250 µg/mL (≈ 16.4 mM) | 200 µg/mL (≈ 0.524 mM) | – | – | – | – | MIC (Phytophthora infestans): 25000 µg/mL (≈ 65.5 mM); MIC (Rhizoctonia solani; [2]): 6250 µg/mL (≈ 16.4 mM)
4 | CC(C)CN(CC(F)(F)F)c1c(-c2c(F)cc(F)cc2F)c(Cl)nc2ncnn12 [Example 26, 5-chloro-7-(N-2-methylpropyl-N-2,2,2-trifluoroethylamino)-6-(2,4,6-trifluorophenyl)-[1,2,4]triazolo[1,5-a]pyrimidine] | 200 µg/mL (≈ 0.457 mM) | 0% | 14% | 22% | 27% | 390 µg/mL (≈ 0.891 mM) | 200 µg/mL (≈ 0.457 mM) | – | 40 µg/mL (≈ 0.0914 mM) | – | – | – | – | MIC (Rhizoctonia solani; [2]): 3130 µg/mL (≈ 7.15 mM)
5 | CN(CC(F)(F)F)c1c(-c2c(F)cc(F)cc2F)c(Cl)nc2ncnn12 [Example 27, 5-chloro-7-(N-methyl-N-2,2.2-trifluoroethylamino)-6-(2,4,6-trifluorophenyl)-[1,2,4]triazolo[1,5-a]-pyrimidine] | – | – | – | – | – | – | – | – | – | 110000 µg/mL (≈ 278 mM) | 780 µg/mL (≈ 1.97 mM) | 3130 µg/mL (≈ 7.91 mM) | 100 µg/mL (≈ 0.253 mM) | % activity (ABBOTT formula) (Uncinula necator; Concentration 3.13 ppm): 0%; % activity (ABBOTT formula) (Uncinula necator; Concentration 6.25 ppm): 0%; % activity (ABBOTT formula) (Uncinula necator; Concentration 12.50 ppm): 11%; % activity (ABBOTT formula) (Uncinula necator; Concentration 25.00 ppm): 17%; MIC (Minimum Inhibitory Concentration) LEPTNO (Leptosphaeria nodorum; [2]): 50000 µg/mL (≈ 126 mM); MIC (Minimum Inhibitory Concentration) RHISZO (Rhizoctonia solani; [2]): 1560 µg/mL (≈ 3.94 mM); MIC (Minimum Inhibitory Concentration) PYRNTE (Pyrenophora teres; [2]): 12500 µg/mL (≈ 31.6 mM)
6 | CC(Nc1c(-c2c(F)cc(F)cc2F)c(Cl)nc2ncnn12)C(F)(F)F (stereo not shown) [Example 28, 5-chloro-7-[N-2-(1,1,1-trifluoropropyl)-amino]-6-(2,4,6-trifluorophenyl)-[1,2,4]triazolo[1,5-a]pyrimidine] | – | – | – | – | – | – | – | – | – | 110000 µg/mL (≈ 278 mM) | 780 µg/mL (≈ 1.97 mM) | 3130 µg/mL (≈ 7.91 mM) | 780 µg/mL (≈ 1.97 mM) | % activity (ABBOTT formula) (Uncinula necator; Concentration 3.13 ppm): 97%; % activity (ABBOTT formula) (Uncinula necator; Concentration 6.25 ppm): 100%; % activity (ABBOTT formula) (Uncinula necator; Concentration 12.50 ppm): 100%; % activity (ABBOTT formula) (Uncinula necator; Concentration 25.00 ppm): 100%; MIC (Minimum Inhibitory Concentration) LEPTNO (Leptosphaeria nodorum; [2]): 3130 µg/mL (≈ 7.91 mM); MIC (Minimum Inhibitory Concentration) RHISZO (Rhizoctonia solani; [2]): 3130 µg/mL (≈ 7.91 mM); MIC (Minimum Inhibitory Concentration) PYRNTE (Pyrenophora teres; [2]): 6250 µg/mL (≈ 15.8 mM)
7 | C[Si](C)(C)CN(CC(F)(F)F)c1c(-c2c(F)cc(F)cc2F)c(Cl)nc2ncnn12 [Example 40, 5-chloro-7-[N-(2.2,2-trifluoroethyl)-N-(trimethylsiiylmethyl)-amino]-6-(2.4,6-trifiuorophenyl)-[1,2,4]triazolo[1,5-a]pyrimidine] | – | – | – | – | – | – | – | – | – | 25000 µg/mL (≈ 53.4 mM) | 780 µg/mL (≈ 1.67 mM) | 6250 µg/mL (≈ 13.4 mM) | 1560 µg/mL (≈ 3.33 mM) | MIC (Minimum Inhibitory Concentration) LEPTNO (Leptosphaeria nodorum): 110000 µg/mL (≈ 235 mM); MIC (Minimum Inhibitory Concentration) RHISZO (Rhizoctonia solani): 110000 µg/mL (≈ 235 mM); MIC (Minimum Inhibitory Concentration) PYRNTE (Pyrenophora teres): 25000 µg/mL (≈ 53.4 mM)
8 | OC1CCCN(c2c(-c3c(F)cc(F)cc3F)c(Cl)nc3ncnn23)C1 (stereo not shown) [Example 41, 5-chloro-7-(3-hydroxypiperidin-1-yl)-6-(2,4,6-trifluorophenyl)-[1,2,4]triazolo[1,5-a]-pyrimidine] | 6250 µg/mL (≈ 16.3 mM) | – | – | – | – | 50000 µg/mL (≈ 130 mM) | 100000 µg/mL (≈ 261 mM) | 25000 µg/mL (≈ 65.1 mM) | 12500 µg/mL (≈ 32.6 mM) | – | – | – | – | –
9 | Fc1cc(F)c(-c2c(Cl)nc3ncnn3c2NC(c2ccccc2)C(F)(F)F)c(F)c1 (stereo not shown) [Example 52, 5-chloro-7-[N-(1-phenyl-2,2,2-trifluoroethyl)-amino]-6-(2,4,6-trifluorophenyl)-[1,2,4]triazolo[1,5-a]pyrimidine] | 3130 µg/mL (≈ 6.84 mM) | – | – | – | – | – | 12500 µg/mL (≈ 27.3 mM) | 3130 µg/mL (≈ 6.84 mM) | 1560 µg/mL (≈ 3.41 mM) | – | – | – | – | –
10 | CC(C)CCN(C)c1c(-c2c(F)cc(F)cc2F)c(Cl)nc2ncnn12 [Example 54, 5-chloro-7-[N-(3-methylbutyl)-N-methylamino]-6-(2,4,6-trifluorophenyl)-[1,2,4]triazolo[1,5-a]pyrimidine] | 780 µg/mL (≈ 2.03 mM) | – | – | – | – | 12500 µg/mL (≈ 32.6 mM) | 3130 µg/mL (≈ 8.16 mM) | 3130 µg/mL (≈ 8.16 mM) | 40 µg/mL (≈ 0.104 mM) | – | – | – | – | –
11 | CC(C)C(Nc1c(-c2c(F)cc(F)cc2F)c(Cl)nc2ncnn12)C(F)(F)F (stereo not shown) [Example 55, 5-chloro-7-[N-2-(3-methyl-1,1,1-trifluorobutyl)-amino]-6-(2,4,6-trifluorophenyl)-[1,2,4]triazolo[1,5-a]-pyrimidine] | – | – | – | – | – | – | – | – | – | 100000 µg/mL (≈ 236 mM) | 390 µg/mL (≈ 0.92 mM) | 1560 µg/mL (≈ 3.68 mM) | 40 µg/mL (≈ 0.0944 mM) | MIC (Minimum Inhibitory Concentration) LEPTNO (Leptosphaeria nodorum; [2]): 1560 µg/mL (≈ 3.68 mM); MIC (Minimum Inhibitory Concentration) RHISZO (Rhizoctonia solani; [2]): 12500 µg/mL (≈ 29.5 mM); MIC (Minimum Inhibitory Concentration) PYRNTE (Pyrenophora teres; [2]): 6250 µg/mL (≈ 14.7 mM)
12 | CCCC(Nc1c(-c2c(F)cc(F)cc2F)c(Cl)nc2ncnn12)C(C)C (stereo not shown) [Example 57, 5-chloro-7-[3-(2-methylhexyl)-amino]-6-(2,4,6-trifluorophenyl)-[1,2,4]triazolo[5-a]-pyrimidine] | – | – | – | – | – | – | – | – | – | 110000 µg/mL (≈ 276 mM) | 200 µg/mL (≈ 0.503 mM) | 390 µg/mL (≈ 0.98 mM) | 40 µg/mL (≈ 0.101 mM) | MIC (Minimum Inhibitory Concentration) LEPTNO (Leptosphaeria nodorum; [2]): 780 µg/mL (≈ 1.96 mM); MIC (Minimum Inhibitory Concentration) RHISZO (Rhizoctonia solani; [2]): 110000 µg/mL (≈ 276 mM); MIC (Minimum Inhibitory Concentration) PYRNTE (Pyrenophora teres; [2]): 3130 µg/mL (≈ 7.87 mM)
13 | OC(c1ccc(Cl)cc1)(c1cncnc1)c1ccccc1Cl (stereo not shown) [Fenarimol, reference compound] | – | 31% | 75% | 95% | 99% | – | – | – | – | – | – | – | – | –
14 | CCCC(Cn1cncn1)c1ccc(Cl)cc1Cl (stereo not shown) [Penconazole, reference compound] | – | 11% | 17% | 31% | 58% | – | – | – | – | – | – | – | – | –
15 | CC1CCN(c2c(-c3c(F)cccc3Cl)c(Cl)nc3ncnn23)CC1 [standard^1, 5-chloro-7-(4-methylpiperidin-1-yl)-6-(2-chloro-6-fluorophenyl)-[1,2,4]triazolo[1,5-a]pyrimidine, reference compound] | – | 31% | 42% | 44% | 73% | – | – | – | – | – | – | – | – | –
